Experiments:
Assay type in all cases: in vivo, C57BL/6 mice
LV, SP and LNs = experiment: Whole organ transcriptome across organs (adjuvant gene space): gene responses and adjuvant grouping
[1] = tested on: inguinal lymph nodes (LN); experiment: Whole organ transcriptome (GeneChip microarray) of draining inguinal lymph nodes 6 h after adjuvant administration: sDEGs, gene modules, hierarchical clustering; as to adjuvant group (cluster) in LN: key: G1 (interferon signaling); G2 (metabolism of lipids and lipoproteins); G3 (response to stress); G4 (response to wounding); G5 (phosphate-containing compound metabolic process); G6 (phagosome)
[2] = tested on: preferentially upregulated genes in LV, SP, LN; experiment: Z-score-based differential gene expression analysis (adjuvant group- or adjuvant-associated genes, 40 module mapping, TargetMine annotation); settings: ID, LN
Procedure, shortened: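 Per-sample fold-change values converted to gene-wise z-scores within each organ's data set, then triplicate z-scores summed per adjuvant. Genes with summed score >3 taken as preferentially expressed; gene groups defined by combined per-adjuvant z-score thresholds (z>1 to z>3) specific to each organ.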

## K3: B class CpG ODN (ATCGACTCTCGAGCGTTCTC), TLR9 ligand (chemistry not given here)
LV, SP and LNs; 6 h, Table 15, route not given
  gene expression changes in LV and SP: relatively weaker responses
LV, SP and LNs; 6 h after i.d. (local) administration
  distribution/strength of gene responses between local LNs and systemic organs (LV, SP): acted on local LNs but not in the systemic remote organs
LV, SP and LNs; hierarchical clustering, LV, SP and/or LNs
  adjuvant group (cluster) within the adjuvant gene space: G5
[1]; LN, 6 h
  genes in module 16 of the LNs (M16^LN), phagosome-related, macrophage-associated: upregulated
  module M15^LN (immune system process, T cell associated): weakly induced
[1]; hierarchical clustering, lymph node
  adjuvant group (cluster) in LN: G5
[1]; i.d. administration, lymph node, fold change <0.667, p<0.01, customized PA call=1, 6 h after adjuvant
  Number of gene probes with statistically significant changes (sDEGs), LN, Down: 18
[1]; i.d. administration, lymph node, fold change >1.5, p<0.01, customized PA call=1, 6 h after adjuvant
  Number of gene probes with statistically significant changes (sDEGs), LN, Up: 53
[2]; Module#(LN) 1
  z sum, 1444615_x_at Runx1t1: −2.11
[2]; Module#(LN) 3
  z sum, 1420894_at Tgfbr1: −2.14
[2]; Module#(LN) 7
  z sum, 1460069_at Smc6: −3.53
[2]; Module#(LN) 8
  z sum, 1440371_at ---: −1.24
[2]; Module#(LN) 9
  z sum, 1456346_at ---: −2.13
[2]; Module#(LN) 10
  z sum, 1425105_at Rbp3: −2.11
[2]; Module#(LN) 11
  z sum, 1455796_x_at Olfm1: −1.44
[2]; Module#(LN) 12
  z sum, 1443302_at ---: −2.78
[2]; Module#(LN) 14
  z sum, 1442518_at C030044O21Rik: −1.58
[2]; Module#(LN) 19
  z sum, 1419486_at Foxc1: −0.76
[2]; Module#(LN) 21
  z sum, 1441344_at Erlin1: −2.63
[2]; Module#(LN) 24
  z sum, 1423611_at Alpl: −1
  z sum, 1448179_at Usmg5: −2.02
[2]; Module#(LN) 26
  z sum, 1458457_at ---: −0.33
[2]; Module#(LN) 28
  z sum, 1450377_at Thbs1: −2.87
[2]; Module#(LN) 32
  z sum, 1443853_x_at Sfmbt1: −2.59
[2]; Module#(LN) 33
  z sum, 1443392_at Trpv1: −1.04
[2]; Module#(LN) 36
  z sum, 1440475_at AW011738: −2.36
[2]; Module#(LN) 37
  z sum, 1416380_at Mov10: −2.43
  z sum, 1421008_at Rsad2: −1.42
  z sum, 1421009_at Rsad2: −0.76
  z sum, 1424339_at Oasl1: −0.5
  z sum, 1426013_s_at Plekha4: −1.53
  z sum, 1436058_at Rsad2: −0.71
  z sum, 1436472_at Slfn9: −2
  z sum, 1447241_at ---: −2.6
[2]; Module#(LN) 39
  z sum, 1416039_x_at Cyr61: −1.58
[2]; Module#(LN) 40
  z sum, 1418191_at Usp18: −0.03
  z sum, 1418293_at Ifit2: −0.49
  z sum, 1418580_at Rtp4: −1
  z sum, 1419603_at Ifi204: −1.28
  z sum, 1421911_at Stat2: −0.43
  z sum, 1422006_at Eif2ak2: −1.95
  z sum, 1422141_s_at Csprs///Gm15433///Gm2666///Gm7609///LOC100041903///LOC100503923: −1.36
  z sum, 1423555_a_at Ifi44: −1.43
  z sum, 1424444_a_at 1600014C10Rik: −0.85
  z sum, 1424607_a_at Gm4354: −0.89
  z sum, 1424609_a_at Cwc22///Gm4354///Xdh: −2.76
  z sum, 1431095_a_at Herc6: −0.73
  z sum, 1432417_a_at Tspan2: −2.15
  z sum, 1439886_at ---: −1.19
  z sum, 1450403_at Stat2: −1.07
  z sum, 1451777_at Ddx60: 0.163
  z sum, 1452349_x_at Ifi205///Mnda: −1.48
  z sum, 1453196_a_at Oasl2: −1.27
  z sum, 1453299_a_at Pnp///Pnp2: −0.78
  z sum, 1453757_at Herc6: −0.2
  z sum, 1456164_at AW011738: −2.08

From patent publication US20230021483A1, “[…] […] METHOD AND CLASSIFICATION OF PHARMACEUTICAL COMPONENTS BY USING TRANSCRIPTOMES” (National Institutes of Biomedical Innovation, Health and …, priority 2016, published 2023)
